Laboratory results: patent US20110319351A1 (priority 2006, published 2011)
“And” between values parts separate entries of the source, which are not always exact repeats. Equal entries are not always repeated. “Also recorded” adds a separate entry of the source. Where two headings read alike, the source gives them in different places.

Assays:
[1] = target: T1, porcine cerebral cortex Na,K-ATPase; type: biochemical
T1 construct: other: 50% response relative to the m
Source text: In the current study, the sensitivity of cardiac glycosides on induction of apoptosis in lymphoblastic cancer cells was examined. The efficacy of digoxin and ouabain in inducing apoptosis in these cell lines was compared with NKA catalytic inhibition activity using porcine cerebral cortex (Table 1). The porcine cerebral cortex (PCC) is a model system known to express the three isoforms of NKA consisting of the three different alpha subunits (α1, α2 and α3) (Rose et al., Clin Chem, 40, 1674-1685 (1994)). The alpha subunit of the NKA contains the binding site of the cardiac glycosides, and like most cationic transporter proteins, the beta subunit act as chaperon, stabilizing the correct assembly of the alpha subunit and facilitating the delivery of the protein to the plasma membrane (Blanco et al., Am J Physiol, 275 (Renal Physiol. 44), F633-F650 (1998)).
In order to compare the concentrations of digoxin or ouabain that affect the induction of apoptosis with those that inhibit the sodium pump, the inhibitory potency of digoxin and ouabain on porcine cerebral cortex (PCC) Na.,K-ATPase catalytic activity was examined.
The values were calculated as 50% response relative to the maximum NKA activity on the PCC or maximum apoptosis on Jurkat and Daudi cells within the concentration ranges tested.
Inhibition of sodium pump catalytic activity by cardiac glycosides was measured by the release of phosphate upon hydrolysis of ATP (Qazzaz et al., Endocrinology, 141, 3200-3209 (2000)).

[2] = test system: Jurkat cells; test: Induction of apoptosis, annexin V-FITC/propidium iodide flow cytometry, Jurkat; type: cell-based, human; conditions: for IC50: Homo sapiens, Jurkat; for highest percentage of apoptosis / increase in apoptosis vs untreated control: Jurkat cells; for highest percentage of apoptosis: n=4; for increase in apoptosis vs untreated control: increasing concentration 10 nM-500 nM
Experimental: (§1) It was determined that the cardiac glycosides (e.g., digoxin and ouabain) selectively induce apoptosis in cancer cells relative to normal non-transformed cells. Through the experiments, some cells were exposed to ultraviolet irradiation as a positive control for induction of apoptosis, whereas cells cultured under normal conditions (95% […]/5% CO2 at 37° C.) acted as the negative control (see Methods). The percentage of counted cells in the lower and upper right hand quadrants are indicative of cells in early and late apoptosis, respectively. The viable cells are at the lower left quadrant. The figures that follow are summaries of data stemming from analysis of percent of cell count undergoing apoptosis as measured in FIG. 1.
(§2) Cell lines used in this study included: Jurkat E6-1, an acute human T-lymphoblastic leukemia cell line generated from a person; Daudi, a human B-lymphoblastoid line derived from Burkitt's lymphoma patient and K 562 derived from a human chronic myelogenous leukemia cell line. All cell lines were maintained in RPMI 1640 medium (Gibco Laboratories, Grand Island, N.Y.) supplemented with 10% fetal calf serum (FCS), 10 mM HEPES, 2 mM glutamine, 50 IU/mL penicillin, 50 μg/mL streptomycin, 0.1 mM non-essential amino acids and 1 mM sodium pyruvate and 0.5 μg/mL amphotericin B. Cells were cultured in a 5% CO2 atmosphere in a thermostatically maintained incubator (37° C.) in standard cell culture flasks. Cell cultures were split every 2-3 days and passage number noted.
(§3) Tumor cell lines (5×10^5 cells/well) and PBMC (1×10^6 cells/well) were cultured in 24-well plates in the presence or absence of various concentrations of digoxin or ouabain for 48 h. The cells were harvested, washed twice in PBS, and analyzed for induction of apoptosis by annexin V-FITC/propidium iodide (PI) method (BD Bioscience, Lincoln Park, N.J.) according to the manufacturer's instructions. Cells were washed once with 1× binding buffer and stained with annexin V-FITC (5 μL) and PI (10 μL) for 15 minutes in the dark. Apoptosis was determined by flow cytometric analyses on a FACScan (BD Biosciences, Lincoln Park, N.J.). Ten thousand cells were analyzed per sample. In experiments where the effect of PHA was studied, cells were seeded accordingly in a 24-well plate and stimulated with PHA (1 μg/mL) for a minimum of 2 hours before treatment with the indicated concentrations of ouabain or digoxin. As a positive control for apoptosis, cells were exposed to ultra violet irradiation for […] and apoptosis was analyzed according to the method described above.

[3] = test system: Daudi cells; test: Induction of apoptosis, annexin V-FITC/propidium iodide flow cytometry, Daudi; type: cell-based, human; conditions: for highest percentage of apoptosis / increase in apoptosis vs untreated control: Daudi cells; for highest percentage of apoptosis: 500 nM, n=4; for increase in apoptosis vs untreated control: increasing concentration; for IC50: Homo sapiens, Daudi
Experimental: as §1, §2, §3

[4] = test system: K 562 cells; test: Induction of apoptosis, annexin V-FITC/propidium iodide flow cytometry, K 562; type: cell-based, human; conditions: increasing concentrations, 48 h
Experimental: as §1, with “1. […]” for “1.”
(§4) Tumor cell lines (5×10^5 cells/well) and PBMC (1×10^6 cells/well) were cultured in 24-well plates in the presence or absence of various concentrations of digoxin or ouabain for 48 h. The cells were harvested, washed twice in PBS, and analyzed for induction of apoptosis by annexin V-FITC/propidium iodide (PI) method (BD Bioscience, Lincoln Park, N.J.) according to the manufacturer's instructions. […] Apoptosis was determined by flow cytometric analyses on a FACScan (BD Biosciences, Lincoln Park, N.J.). Ten thousand cells were analyzed per sample. […]

[5] = test system: peripheral blood mononuclear cells (PBMC); test: Induction of apoptosis, annexin V-FITC/propidium iodide flow cytometry, PBMC; type: cell-based, human; conditions: increasing concentration, 48 h
Experimental: as §1, with “1. […]” for “1.”
as §4

[6] = test system: caspase-3 activity in Jurkat cells; test: DEVD-dependent caspase-3 activity, Jurkat; type: cell-based, human; conditions: 100 nM, 12 h
Experimental: (§5) Measurement of DEVD-dependent caspase-3 activity is a measure of induction of apoptosis, irrespective of the apoptotic pathway activated. The effect of digoxin (100 nM) to induce activation of caspase-3 activity in these tumor cell lines and as well as normal PBMC was examined. Tumor cells (1×10^7 cell/mL) and PBMC (1×10^7 cells/mL) were exposed to ultraviolet irradiation or digoxin (100 nM) for 12 h. The cells were then analyzed for caspase-3 activation using caspase-3 activation assay kit following the manufacturer's instructions.
(§6) Caspase-3 activity was measured using a caspase-3 assay kit (Sigma-Aldrich Co. St Louis, Mo.). Briefly, tumor cell lines (1×10^7 cells/mL), and PBMC (1×10^7 cells/mL) were cultured in the presence or absence of the indicated concentration of digoxin. Cells were harvested by centrifugation and washed once with PBS. Cells were lysed with lysis buffer (30 mM Tris-HCl, pH 7.5, 150 mM NaCl, 1% Triton X-100, and 10% glycerol) and were centrifuged to remove cell debris, Caspase 3 activity was assayed in the cell lysate according to the manufacturer's instructions. The colorimetric assay is based on spectrophotometric detection of chromophore pNA at 405 nm after cleavage from labelled substrate DEVD-pNA. The level of caspase 3 activity is interpolated from a calibration curve.

[7] = test system: caspase-3 activity in Daudi cells; test: DEVD-dependent caspase-3 activity, Daudi; type: cell-based, human; conditions: 100 nM, 12 h
Experimental: as §5, §6

[8] = test system: caspase-3 activity in K 562 cells; test: DEVD-dependent caspase-3 activity, K 562; type: cell-based, human; conditions: 100 nM, 12 h
Experimental: as §5, §6

[9] = test system: caspase-3 activity in PBMC; test: DEVD-dependent caspase-3 activity, PBMC; type: cell-based, human; conditions: 100 nM, 12 h
Experimental: as §5, §6

[10] = test system: Jurkat cells; test: Apoptosis after PHA stimulation, Jurkat; type: cell-based, human; conditions: PHA 1 μg/mL, digoxin 10 nM and 100 nM, 48 h
Experimental: as §3

[11] = test system: PBMC; test: Apoptosis after PHA stimulation, PBMC; type: cell-based, human; conditions: PHA 1 μg/mL, digoxin 10 nM-100 nM, 48 h
Experimental: as §3

[12] = test system: human lymphoblastic cell lines; test: Induction of apoptosis in the cancer cell lines (Jurkat and Daudi together); type: cell-based; conditions: read-out: concentration needed to induce a 50% apoptotic response
Experimental: as §3

[13] = Kometiani et al. 2005; cited from earlier work
[14] = 50% response relative to the maximum NKA activity on the PCC, read-out: IC50, Inhibitory Potency on Porcine cerebral cortex (PCC) NKA catalytic activity
[15] = range of the IC50, read-out: Range of IC50, Inhibitory Potency on PCC NKA catalytic activity
[16] = 50% response relative to maximum apoptosis within the concentration ranges tested, 48 h, read-out: IC50, Induction of apoptosis on acute T-cell lymphoblastic leukemic cells (Jurkat)
[17] = range of the IC50, read-out: Ranges of IC50, Induction of apoptosis on Jurkat

| Structure (SMILES) | IC50 [1, 14] | IC50 [1, 15] | IC50 [2, 16] | IC50 [2, 17] | increase in apoptosis vs untreated control ([2]; 48 h) | highest percentage of apoptosis ([3]; 48 h) | increase in apoptosis vs untreated control ([3]; 48 h) | increase in apoptosis vs untreated control [4] | increase in apoptosis vs untreated control [5] | also measured |
| --- | --- | --- | --- | --- | --- | --- | --- | --- | --- | --- |
| C[C@H]1O[C@@H](O[C@H]2[C@@H](O)C[C@H](O[C@H]3[C@@H](O)C[C@H](O[C@H]4CC[C@@]5(C)[C@H](CC[C@@H]6[C@@H]5C[C@@H](O)[C@]5(C)[C@@H](C7=CC(=O)OC7)CC[C@]65O)C4)O[C@@H]3C)O[C@@H]2C)C[C@H](O)[C@@H]1O [Digoxin, digoxin] | 910 nM | 820 to 1010 nM | 24 nM | 11 to 56 nM | significantly (P<0.05) led to increases in apoptosis | 83.2±7.3% and 83.2%±7.3% | significantly (P<0.05) led to increase in apoptosis | neither digoxin nor ouabain significantly induced apoptosis; also recorded: did not significantly (P>0.05) lead to increases in apoptosis | neither digoxin nor ouabain significantly induced apoptosis; also recorded: did not significantly (P>0.05) lead to increase in apoptosis | highest percentage of apoptosis ([2]; 500 nM, 48 h): 50.2±4.5% and 50.2%±4.5%; IC50 ([3]; 48 h, read-out: IC50, Induction of apoptosis on B-cell Burkitt's lymphoma cells (Daudi)): 48 nM; IC50 ([3]; read-out: Ranges of IC50, Induction of apoptosis on Daudi): 35 to 65 nM; caspase-3 activity relative to the untreated controls [6]: 8 fold; caspase-3 activity relative to the untreated controls [7]: 7 fold; caspase-3 activity relative to the untreated controls [8]: no such increases; caspase-3 activity relative to the untreated controls [9]: no such increases; percent of apoptosis in the presence of PHA [10]: synergistically increased; percent of apoptosis in the presence of PHA ([10]; listed as digoxin): synergistically induced apoptosis; also recorded: synergistically increased; percent of apoptosis in the presence of PHA [11]: No such effect; percent of apoptosis in the presence of PHA ([11]; listed as digoxin): No such synergistic effect; also recorded: no such synergistic increase; EC50 [12]: 20 to 40 nM; therapeutic concentrations in blood [13]: approximately 2 nM |
| C[C@@H]1O[C@@H](O[C@H]2C[C@@H](O)[C@]3(CO)[C@H]4[C@H](O)C[C@]5(C)[C@@H](C6=CC(=O)OC6)CC[C@]5(O)[C@@H]4CC[C@]3(O)C2)[C@H](O)[C@H](O)[C@H]1O [Ouabain, ouabain] | 600 nM | 550 to 650 nM | 26 nM | 19 to 48 nM | significantly (P<0.05) led to increases in apoptosis | 81.1±6.1% | significantly (P<0.05) led to increase in apoptosis | neither digoxin nor ouabain significantly induced apoptosis; also recorded: did not significantly (P>0.05) lead to increases in apoptosis | neither digoxin nor ouabain significantly induced apoptosis; also recorded: did not significantly (P>0.05) lead to increase in apoptosis | highest percentage of apoptosis ([2]; 100 nM, 48 h): 47.6±3.9% and 47.6±5.6%; IC50 ([3]; 50% response relative to maximum apoptosis within the concentration ranges tested, 48 h, read-out: IC50, Induction of apoptosis on B-cell Burkitt's lymphoma cells (Daudi)): 40 nM; IC50 ([3]; range of the IC50, read-out: Ranges of IC50, Induction of apoptosis on Daudi): 36 to 56 nM; EC50 ([12]; based on the maximum apoptosis at 500 nM, for each of the cancer cell lines): 20 to 40 nM |
